In patent publication US6218398A, “Nocathiacin antibiotics” (Bristol-Myers Squibb Company, priority 1999, dated 2001):
In brackets after ≈: the same amount, converted by molar mass.

Tests used:
[1] = system: Staphylococcus aureus/hetero methicillin resistant A27218; experiment: MIC by conventional serial broth dilution assay; format: cell-based
[2] = system: Escherichia coli A15119; experiment: MIC by conventional serial broth dilution assay; format: cell-based
[3] = system: Staphylococcus aureus A15090; experiment: systemic Staph. aureus infection model in mice; format: in vivo, female ICR mice infected with Staphylococcus aureus; details: subcutaneous
Experimental: Nocathiacin I was evaluated for antibiotic activity in vivo, in a systemic infection model using female ICR mice. The animals were infected IP with 6.5×10^6 CFU of an overnight culture of Staphylococcus aureus A15090 suspended in 7% mucin. Nocathiacin I was dissolved in a test formulation consisting of 10% DMSO, 5% Tween 80 and 85% water. The solution was administered subcutaneously at 100 mg/kg total dose (2×50 mg/kg doses at 1 and 4 hours post-infection). […] The PD50 of nocathiacin I was determined to be <6.25 mg/kg.

[4] = system: Salmonella/WT A27207; experiment: MIC by conventional serial broth dilution assay; format: cell-based
[5] = system: Moraxella catarrhalis/β-lactamase positive A25409; experiment: MIC by conventional serial broth dilution assay; format: cell-based
[6] = system: Enterococcus faecalis A20688; experiment: MIC by conventional serial broth dilution assay; format: cell-based
[7] = system: Enterococcus faecium/thiostrepton resistant (10 ug/ml) SC15829; experiment: MIC by conventional serial broth dilution assay; format: cell-based
[8] = system: Staphylococcus haemolyticus A27298; experiment: MIC by conventional serial broth dilution assay; format: cell-based
[9] = system: Enterococcus avium A27456; experiment: MIC by conventional serial broth dilution assay; format: cell-based
[10] = system: Escherichia coli A22292; experiment: MIC by conventional serial broth dilution assay; format: cell-based
[11] = system: Staphylococcus epidermidis A24548; experiment: MIC by conventional serial broth dilution assay; format: cell-based
[12] = system: Haemophilus influenzae/β-lactamase negative A20191; experiment: MIC by conventional serial broth dilution assay; format: cell-based
[13] = system: Staphylococcus aureus/homo methicillin resistant A27223; experiment: MIC by conventional serial broth dilution assay; format: cell-based
[14] = system: Streptococcus pneumoniae A9585; experiment: MIC by conventional serial broth dilution assay; format: cell-based
[15] = system: Staphylococcus aureus/QC/ATCC#29213 A24407; experiment: MIC by conventional serial broth dilution assay; format: cell-based; details: ATCC29213
[16] = system: Escherichia coli/AcrA::Kan A28901; experiment: MIC by conventional serial broth dilution assay; format: cell-based
[17] = system: Haemophilus influenzae/β-lactamase positive A21515; experiment: MIC by conventional serial broth dilution assay; format: cell-based
[18] = system: Enterococcus faecalis A27519; experiment: MIC by conventional serial broth dilution assay; format: cell-based
[19] = system: Bacillus subtilis A9506A; experiment: MIC by conventional serial broth dilution assay; format: cell-based
[20] = system: Salmonella enteritidis A9531; experiment: MIC by conventional serial broth dilution assay; format: cell-based; details: Salmonella enterica
[21] = system: Streptococcus pneumoniae/penicillin intermediate A27881; experiment: MIC by conventional serial broth dilution assay; format: cell-based
[22] = system: Streptococcus pyogenes A9604; experiment: MIC by conventional serial broth dilution assay; format: cell-based
[23] = system: Haemophilus influenzae/β-lactamase negative A20183; experiment: MIC by conventional serial broth dilution assay; format: cell-based
[24] = system: Salmonella/RE A27208; experiment: MIC by conventional serial broth dilution assay; format: cell-based
[25] = system: Micrococcus luteus A9852; experiment: MIC by conventional serial broth dilution assay; format: cell-based
[26] = system: Streptococcus pneumoniae/penicillin resistant A28272; experiment: MIC by conventional serial broth dilution assay; format: cell-based
[27] = system: Enterococcus faecium A24885; experiment: MIC by conventional serial broth dilution assay; format: cell-based
[28] = system: Staphylococcus aureus/β-lactamase positive A15090; experiment: MIC by conventional serial broth dilution assay; format: cell-based
[29] = system: Gram-positive bacteria; experiment: in vitro activity against Gram-positive bacteria; format: cell-based; details: e.g. multiple drug resistant Enterococcus faecium
[30] = system: Moraxella catarrhalis/β-lactamase positive A22344; experiment: MIC by conventional serial broth dilution assay; format: cell-based
[31] = system: Staphylococcus aureus A9537; experiment: MIC by conventional serial broth dilution assay; format: cell-based

## C=C(NC(=O)c1csc(-c2nc3c(cc2O)-c2nc(cs2)C(=O)NC(C(C)O)C(=O)NC(=C(C)OC)c2nc(cs2)C(=O)NC2c4nc(cs4)C(=O)NC(COC(=O)c4c5c6c(cccc6n4O)COC(=O)C(OC4CC(C)(O)C(N(C)C)C(C)O4)C2OC5)c2nc-3cs2)n1)C(N)=O (stereo not shown) [Nocathiacin I]
[1]; + 50% calf serum
  MIC: 0.007 µg/mL
[1]; hetero methicillin resistant
  MIC: 0.003 µg/mL (≈ 0.00209 µM)
[2]
  MIC: > 128 µg/mL
[3]; Staphylococcus aureus, A15090, sc, systemic infection model, female ICR mice, read-out: PD50
  ED50: < 6.25 mg/kg
[3]; 100 mg/kg total dose (2×50 mg/kg at 1 and 4 hours post-infection)
  signs of toxicity: no signs of toxicity
[3]; 100 mg/kg total dose (2×50 mg/kg at 1 and 4 hours post-infection), IP infection 6.5×10^6 CFU
  animals survived the duration of the experiment: Nine out of nine
[4]
  MIC: > 128 µg/mL
[5]
  MIC: 0.06 µg/mL (≈ 0.0417 µM)
[6]; A20688
  MIC: 0.03 µg/mL (≈ 0.0209 µM)
[6]; A20688, + 50% calf serum
  MIC: 0.25 µg/mL
[7]
  MIC: 0.125 µg/mL (≈ 0.087 µM)
[8]
  MIC: 0.03 µg/mL (≈ 0.0209 µM)
[9]
  MIC: 0.015 µg/mL (≈ 0.0104 µM)
[10]
  MIC: > 128 µg/mL
[11]
  MIC: 0.003 µg/mL (≈ 0.00209 µM)
[12]
  MIC: > 128 µg/mL
[13]; + 50% calf serum
  MIC: 0.001 µg/mL
[13]; homo methicillin resistant
  MIC: 0.003 µg/mL (≈ 0.00209 µM)
[14]
  MIC: 0.001 µg/mL (≈ 0.000696 µM)
[15]
  MIC: 0.007 µg/mL (≈ 0.00487 µM)
[16]
  MIC: > 128 µg/mL
[17]
  MIC: > 128 µg/mL
[18]
  MIC: 0.03 µg/mL (≈ 0.0209 µM)
[19]
  MIC: 0.001 µg/mL (≈ 0.000696 µM)
[20]
  MIC: > 128 µg/mL
[21]
  MIC: 0.001 µg/mL (≈ 0.000696 µM)
[22]
  MIC: 0.001 µg/mL (≈ 0.000696 µM)
[23]
  MIC: > 128 µg/mL
[24]
  MIC: > 128 µg/mL
[25]
  MIC: 0.003 µg/mL (≈ 0.00209 µM)
[26]
  MIC: 0.001 µg/mL (≈ 0.000696 µM)
[27]
  MIC: 0.015 µg/mL (≈ 0.0104 µM)
[28]; + 50% calf serum
  MIC: 0.015 µg/mL
[28]; β-lactamase positive
  MIC: 0.007 µg/mL (≈ 0.00487 µM)
[29]
  inhibitory activity against Gram-positive bacteria: inhibitory activity at the nanomolar level
[30]
  MIC: 0.06 µg/mL (≈ 0.0417 µM)
[31]
  MIC: 0.001 µg/mL (≈ 0.000696 µM)
